These results are taken from PubChem BioAssay (NCI).

Some test systems named below: HCC-2998 colon; HCT-15 colon; MCF7 breast; NCI-H23 lung; OVCAR-3 ovarian; OVCAR-4 ovarian; SF-268 CNS; SR leukemia; SW-620 colon; TK-10 renal.
What all share (experiment): NCI anticancer screen, dose series, 48 h

SMILES strings stand for the structures. Several values for one entry are separate records, joined by “and”; a condition that tells them apart may be missing. Equal values may be shown once.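 How tested: cells in 96-well plates exposed to compound for 48 hours at five concentrations. At the GI50, growth is halved. TGI denotes the concentration required for complete inhibition of growth.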

For `O=S(=O)(NCCCNc1nccc(-c2c(-c3cccc(F)c3)nc3occn23)n1)c1cccc2ccccc12`, the GI50 in the assay on HCC-2998 colon was 2.52 µM; with HCT-15 colon, 3.31 µM; in the assay with MCF7 breast, 4.07 µM; with NCI-H23 lung, 14.8 µM; in the assay with OVCAR-3 ovarian it was 13.5 µM; with OVCAR-4 ovarian it was 7.66 µM. Besides, the GI50 was 7.39 µM in the assay on SF-268 CNS, 8.79 µM with SR leukemia, 6.91 µM in the assay on SW-620 colon and 11 µM with TK-10 renal. The TGI was 5.74 µM in the assay with HCC-2998 colon; > 100 µM in the assay with HCT-15 colon; > 100 µM in the assay on MCF7 breast; > 100 µM with NCI-H23 lung; > 100 µM in the assay with OVCAR-3 ovarian; > 100 µM with OVCAR-4 ovarian. In addition, the TGI with SF-268 CNS, in the assay on SR leukemia, in the assay with SW-620 colon and with TK-10 renal was > 100 µM in each case.

Turning to `Nc1c(C(=O)Nc2ccccn2)sc2nc3c(cc12)CCCCCC3`, the GI50 with HCC-2998 colon was 1.61 µM; in the assay with HCT-15 colon, 0.254 µM; in the assay with MCF7 breast it was 0.179 µM; with NCI-H23 lung, 2.25 µM; with OVCAR-3 ovarian, 0.626 µM; in the assay on OVCAR-4 ovarian it was 4.21 µM. The GI50 with SF-268 CNS was 2.48 µM; with SR leukemia, 0.197 µM; in the assay on SW-620 colon, 0.389 µM; in the assay with TK-10 renal it was 2.87 µM. Further, the TGI is 33.1 µM with HCC-2998 colon; 11.1 µM in the assay on HCT-15 colon; 10.2 µM with MCF7 breast; > 50 µM in the assay with NCI-H23 lung; 2.47 µM in the assay with OVCAR-3 ovarian; 15.8 µM in the assay on OVCAR-4 ovarian. Further, the TGI with SF-268 CNS was 22.6 µM; with SR leukemia, > 50 µM; in the assay on SW-620 colon, 22.7 µM; in the assay on TK-10 renal, 10.3 µM.

As to `O=C1C2C(C(=O)N1CC[Se][Se]CCN1C(=O)C3C(C1=O)[C@H]1C=C[C@@H]3C1)[C@H]1C=C[C@@H]2C1` (stereo partly drawn), the GI50 in the assay with HCC-2998 colon was 2.62 µM; with HCT-15 colon, 0.441 µM; in the assay on MCF7 breast, 0.332 µM; in the assay with NCI-H23 lung it was 0.802 µM; with OVCAR-3 ovarian, 0.852 µM; in the assay on OVCAR-4 ovarian it was 1.04 µM. Moreover, the GI50 was 0.271 µM in the assay with SF-268 CNS, 1.1 µM in the assay with SR leukemia, 2.62 µM in the assay on SW-620 colon and 0.303 µM in the assay with TK-10 renal. Further, the TGI in the assay on HCC-2998 colon worked out at 8.92 µM; with HCT-15 colon, 2.33 µM; with MCF7 breast it was 4.01 µM; in the assay with NCI-H23 lung, 4.48 µM; in the assay with OVCAR-3 ovarian, 2.94 µM; in the assay on OVCAR-4 ovarian, 4.52 µM. Besides, the TGI in the assay on SF-268 CNS is 0.76 µM; in the assay on SR leukemia, > 26.6 µM; in the assay on SW-620 colon it was 7.59 µM; in the assay on TK-10 renal, 0.994 µM.

On to `N#Cc1cccc(C2C3=C(COC3=O)N(CCO)c3cc4c(cc32)CCC4)c1` (stereo not drawn), for which the GI50 is 0.186 µM in the assay with HCC-2998 colon; 0.127 µM with HCT-15 colon; 0.0411 µM with MCF7 breast; 0.302 µM with NCI-H23 lung; 0.123 µM with OVCAR-3 ovarian; 0.374 µM in the assay with OVCAR-4 ovarian. Besides, the GI50 in the assay on SF-268 CNS was 0.368 µM; with SR leukemia it was 0.0486 µM; with SW-620 colon, 0.153 µM; with TK-10 renal, 0.436 µM. Further, the TGI in the assay on HCC-2998 colon was > 30.4 µM; with HCT-15 colon, > 50 µM; with MCF7 breast, > 50 µM; in the assay on NCI-H23 lung, > 50 µM; with OVCAR-4 ovarian, > 50 µM; in the assay on SF-268 CNS, > 50 µM. Also, the TGI in the assay with SR leukemia, with SW-620 colon and with TK-10 renal was > 50 µM in each case.

In the case of `O=C(Nc1ccc(Cl)c(C(F)(F)F)c1)C(=O)c1c(O)c2ccccc2oc1=O`, the TGI in the assay on HCC-2998 colon, with HCT-15 colon, in the assay with MCF7 breast, with NCI-H23 lung, in the assay with OVCAR-3 ovarian and with OVCAR-4 ovarian was > 100 µM each time. The TGI in the assay on SF-268 CNS, in the assay with SR leukemia, with SW-620 colon and in the assay with TK-10 renal was > 100 µM each time.

`Nc1ccn([C@@H]2S[C@H](CO)[C@@H](O)[C@@H]2F)c(=O)n1`: the GI50 is 3.03 µM in the assay on HCC-2998 colon; 0.413 µM in the assay on HCT-15 colon; 0.0545 µM with MCF7 breast; 0.0586 µM in the assay with NCI-H23 lung; > 51.1 µM in the assay on OVCAR-3 ovarian; > 100 µM in the assay with OVCAR-4 ovarian. The GI50 is 0.26 µM with SF-268 CNS, 0.0575 µM with SR leukemia, 0.252 µM in the assay with SW-620 colon and > 100 µM with TK-10 renal. The TGI is > 100 µM in the assay on HCC-2998 colon; > 100 µM with HCT-15 colon; > 100 µM in the assay on MCF7 breast; > 49 µM in the assay with NCI-H23 lung; > 100 µM with OVCAR-3 ovarian; > 100 µM with OVCAR-4 ovarian. Besides, the TGI in the assay on SF-268 CNS, in the assay on SR leukemia, with SW-620 colon and in the assay with TK-10 renal was > 100 µM in each case.

Turning to `CC/C(=C(/c1ccc(/C=C/C(=O)O)cc1)c1ccc2[nH]ncc2c1)c1ccc(F)cc1Cl`, the GI50 was 13.8 µM in the assay on HCC-2998 colon; 7.45 µM with HCT-15 colon; 15.4 µM with NCI-H23 lung; 11.8 µM in the assay on OVCAR-3 ovarian; 12 µM in the assay on OVCAR-4 ovarian; 11.9 µM with SF-268 CNS. Further, the figures for the GI50 with SR leukemia, with SW-620 colon and in the assay with TK-10 renal were 4.03 µM, 12 µM and 15.9 µM, respectively. In addition, the TGI with HCC-2998 colon stood at 29.8 µM; in the assay with HCT-15 colon, 22 µM; in the assay on MCF7 breast, 15.4 µM; in the assay with NCI-H23 lung it was 37.8 µM; in the assay on OVCAR-3 ovarian, 24.9 µM; with OVCAR-4 ovarian it was 27.9 µM. Further, the TGI stood at 27.4 µM in the assay with SF-268 CNS, 29.4 µM in the assay with SR leukemia, 28.5 µM with SW-620 colon and 33.4 µM in the assay on TK-10 renal.

On to `N=C(N)c1ccc(OCCCCCOc2ccc(C(=N)N)cc2)cc1`, for which the GI50 with HCC-2998 colon is 7.15 µM; in the assay on HCT-15 colon, 7.57 µM; with MCF7 breast, 2.59 µM; with NCI-H23 lung it was 3.34 µM; in the assay with OVCAR-3 ovarian it was 5.25 µM; in the assay on OVCAR-4 ovarian it was 3.6 µM. Also, the GI50 in the assay with SF-268 CNS was 4.48 µM; with SR leukemia, 13.3 µM and 13.6 µM and > 100 µM; in the assay with SW-620 colon, 5.17 µM and 8.95 µM and 18.1 µM; in the assay with TK-10 renal, 8.49 µM. Moreover, the TGI in the assay with HCC-2998 colon is 40.4 µM and 28.3 µM; in the assay on HCT-15 colon it was > 100 µM; with MCF7 breast it was 14.4 µM and 25.9 µM and 28.5 µM; with NCI-H23 lung, > 50 µM and 25.4 µM and 29 µM; in the assay with OVCAR-3 ovarian, 15.4 µM and 34.9 µM and 37 µM; in the assay on OVCAR-4 ovarian, 18.7 µM and 35.4 µM and 53.5 µM. Further, the TGI with SF-268 CNS was 13.6 µM and 34.2 µM and 37.7 µM; with SR leukemia, 44.4 µM and 58.5 µM and > 100 µM; with SW-620 colon, > 50 µM and 57.7 µM and 86.9 µM; with TK-10 renal it was 18.9 µM and 27.6 µM and 48.3 µM.
